Test results taken from ChEMBL document CHEMBL1201862, “PubChem BioAssay data set” (2004).
Active and inactive are the calls of the source.

Tests used:
[1] = cells; assay type: functional
[2] = target: T1, DNA repair and recombination protein RAD54-like (Homo sapiens, UniProt Q92698); assay: inhibitors of human RAD54 branch migration, confirmation, biochemical, fluorescence, cherry-picked samples, dose series (AID 651657); assay type: functional
T1 sequence (Q92698 whole entry): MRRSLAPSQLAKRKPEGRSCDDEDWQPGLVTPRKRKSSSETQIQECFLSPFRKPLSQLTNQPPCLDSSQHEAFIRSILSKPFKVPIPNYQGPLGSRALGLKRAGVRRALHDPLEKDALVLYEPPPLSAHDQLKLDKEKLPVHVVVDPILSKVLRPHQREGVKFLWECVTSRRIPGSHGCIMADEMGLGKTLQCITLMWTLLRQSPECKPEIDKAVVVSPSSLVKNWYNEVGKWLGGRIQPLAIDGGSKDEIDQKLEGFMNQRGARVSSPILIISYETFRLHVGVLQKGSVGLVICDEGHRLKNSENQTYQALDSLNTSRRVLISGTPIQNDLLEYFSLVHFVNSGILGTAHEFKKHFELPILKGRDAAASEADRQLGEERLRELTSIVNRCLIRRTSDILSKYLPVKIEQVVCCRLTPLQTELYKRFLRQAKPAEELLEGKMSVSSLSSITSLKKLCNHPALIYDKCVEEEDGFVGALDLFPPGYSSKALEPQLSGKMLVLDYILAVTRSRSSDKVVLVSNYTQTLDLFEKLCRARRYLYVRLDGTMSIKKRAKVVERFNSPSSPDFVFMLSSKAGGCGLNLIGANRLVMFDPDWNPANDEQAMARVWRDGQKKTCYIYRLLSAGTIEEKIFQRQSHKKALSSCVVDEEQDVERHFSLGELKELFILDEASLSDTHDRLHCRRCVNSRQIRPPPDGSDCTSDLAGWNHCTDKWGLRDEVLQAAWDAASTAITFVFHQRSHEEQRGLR

[3] = NIH:OVCAR-3 ovarian cancer cell cytotoxicity, dose response, PAX8 inhibitor project, plate reader, dry powder samples (AID 743044); assay type: functional, cell-based
[4] = target: Paired box protein Pax-8 (Homo sapiens, UniProt Q06710); assay: inhibitors of PAX8-driven TPO luciferase reporter, dose response, RMG-I cells, cherry-pick (AID 687027); assay type: functional, cell-based;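 also: luciferase reporter driven by Pax8 target thyroperoxidase promoter measured by SteadyGlo luminescence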
Sequence of Paired box protein Pax-8 (Q06710 whole entry): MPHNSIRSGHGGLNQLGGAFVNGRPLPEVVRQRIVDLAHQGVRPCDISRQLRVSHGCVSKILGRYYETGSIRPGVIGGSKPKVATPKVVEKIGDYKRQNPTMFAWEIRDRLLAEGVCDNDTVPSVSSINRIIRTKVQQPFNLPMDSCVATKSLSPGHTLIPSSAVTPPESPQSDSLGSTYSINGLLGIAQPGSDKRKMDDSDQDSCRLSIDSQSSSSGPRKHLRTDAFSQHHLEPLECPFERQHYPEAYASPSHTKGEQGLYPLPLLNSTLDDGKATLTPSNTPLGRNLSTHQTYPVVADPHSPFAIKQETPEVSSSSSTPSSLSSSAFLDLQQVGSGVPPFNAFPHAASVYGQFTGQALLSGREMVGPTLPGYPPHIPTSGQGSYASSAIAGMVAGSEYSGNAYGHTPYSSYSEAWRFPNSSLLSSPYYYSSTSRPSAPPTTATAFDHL

[5] = cells
[6] = target: T2, Zinc finger protein mex-5 (Caenorhabditis elegans, UniProt Q9XUB2); assay: MEX-5/TCR-2 RNA interaction inhibitors, dose response, biochemical, C. elegans, fluorescence polarization (AID 1960)
T2 sequence (Q9XUB2 whole entry): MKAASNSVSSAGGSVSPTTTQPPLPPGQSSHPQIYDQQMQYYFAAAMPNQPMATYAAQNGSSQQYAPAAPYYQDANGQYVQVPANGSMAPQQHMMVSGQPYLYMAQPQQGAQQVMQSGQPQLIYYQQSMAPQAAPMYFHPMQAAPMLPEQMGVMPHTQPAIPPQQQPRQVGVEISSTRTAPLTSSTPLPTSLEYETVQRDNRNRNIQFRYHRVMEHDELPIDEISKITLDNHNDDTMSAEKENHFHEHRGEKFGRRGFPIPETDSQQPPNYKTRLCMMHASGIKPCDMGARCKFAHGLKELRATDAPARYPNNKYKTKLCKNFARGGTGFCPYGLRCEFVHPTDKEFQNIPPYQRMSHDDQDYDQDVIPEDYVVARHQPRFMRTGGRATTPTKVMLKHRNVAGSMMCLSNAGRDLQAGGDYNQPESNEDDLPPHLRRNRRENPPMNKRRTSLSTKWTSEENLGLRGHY

[7] = target: T3, RNA-binding protein pos-1 (Caenorhabditis elegans, UniProt G5EF15); assay: inhibitors of POS-1/mex-3 RNA binding, dose response, biochemical, fluorescence polarization (AID 1964);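 also: purified POS-1 fused to maltose binding protein made in E. coli; potency of compounds blocking POS-1 binding to fluorescent RNA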
T3 sequence (G5EF15 whole entry): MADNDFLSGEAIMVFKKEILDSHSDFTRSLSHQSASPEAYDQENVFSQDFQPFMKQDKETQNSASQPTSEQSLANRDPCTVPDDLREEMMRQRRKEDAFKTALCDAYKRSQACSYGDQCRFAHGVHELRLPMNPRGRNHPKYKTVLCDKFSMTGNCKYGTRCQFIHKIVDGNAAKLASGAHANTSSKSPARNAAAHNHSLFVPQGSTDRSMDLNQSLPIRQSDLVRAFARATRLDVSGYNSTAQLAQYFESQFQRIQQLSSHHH

[8] = inhibitors of intracellular T. cruzi replication, confirmation, NIH3T3 host cells, beta-gal luminescence (AID 2044); assay type: functional, cell-based;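 also: intracellular parasites grown in NIH/3T3 mouse fibroblasts as host cells; luminescent beta-galactosidase reporter signal from transgenic T. cruzi replicating inside host cells; inhibitors lower the luminescence signal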
[9] = cytotoxicity toward NIH3T3 fibroblasts, dose response, counter-screen, cell-based, ATP luminescence, mouse fibroblasts (AID 2010); assay type: functional;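 also: cells exposed to compound for about 90 hours before reading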
[10] = target: Cytochrome P450 2C19 (Homo sapiens, UniProt P33261); assay: Cytochrome panel assay with activity outcomes. Panel member name: p450-cyp2c19 Compounds with AC50 equal or less than 10 uM are considered active; assay type: functional; details: read-out: AC50
Sequence of Cytochrome P450 2C19 (P33261 whole entry): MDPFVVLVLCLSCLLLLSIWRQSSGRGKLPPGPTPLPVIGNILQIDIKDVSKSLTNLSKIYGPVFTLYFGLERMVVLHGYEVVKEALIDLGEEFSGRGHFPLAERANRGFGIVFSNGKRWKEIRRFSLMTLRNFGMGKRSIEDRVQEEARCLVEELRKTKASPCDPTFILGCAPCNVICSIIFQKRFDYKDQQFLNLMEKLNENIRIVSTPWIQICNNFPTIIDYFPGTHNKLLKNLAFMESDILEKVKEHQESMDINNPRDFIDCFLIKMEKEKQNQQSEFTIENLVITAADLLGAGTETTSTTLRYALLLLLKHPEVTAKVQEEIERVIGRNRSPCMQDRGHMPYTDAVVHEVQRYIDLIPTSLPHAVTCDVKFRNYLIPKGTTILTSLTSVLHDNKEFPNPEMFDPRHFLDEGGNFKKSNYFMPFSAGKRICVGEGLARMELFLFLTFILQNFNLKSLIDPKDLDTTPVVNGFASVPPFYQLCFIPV

[11] = target: Cytochrome P450 2C9 (Homo sapiens, UniProt P11712)
Sequence of Cytochrome P450 2C9 (P11712 whole entry): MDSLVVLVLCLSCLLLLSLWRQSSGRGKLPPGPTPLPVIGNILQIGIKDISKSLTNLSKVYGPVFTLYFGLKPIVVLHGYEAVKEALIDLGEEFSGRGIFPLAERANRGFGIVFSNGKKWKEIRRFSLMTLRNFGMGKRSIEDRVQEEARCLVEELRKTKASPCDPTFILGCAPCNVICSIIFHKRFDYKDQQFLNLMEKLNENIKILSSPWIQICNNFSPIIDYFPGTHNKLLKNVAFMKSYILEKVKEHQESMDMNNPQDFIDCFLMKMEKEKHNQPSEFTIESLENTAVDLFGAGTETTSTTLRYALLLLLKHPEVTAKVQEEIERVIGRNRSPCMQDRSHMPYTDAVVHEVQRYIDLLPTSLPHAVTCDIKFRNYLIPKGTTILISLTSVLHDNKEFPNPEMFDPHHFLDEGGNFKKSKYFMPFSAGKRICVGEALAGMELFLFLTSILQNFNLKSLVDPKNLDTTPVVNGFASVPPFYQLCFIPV

[12] = target: Cytochrome P450 3A4 (Homo sapiens, UniProt P08684);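 also: CYP3A4 tested as one member of a cytochrome P450 panel screen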
Sequence of Cytochrome P450 3A4 (P08684 whole entry): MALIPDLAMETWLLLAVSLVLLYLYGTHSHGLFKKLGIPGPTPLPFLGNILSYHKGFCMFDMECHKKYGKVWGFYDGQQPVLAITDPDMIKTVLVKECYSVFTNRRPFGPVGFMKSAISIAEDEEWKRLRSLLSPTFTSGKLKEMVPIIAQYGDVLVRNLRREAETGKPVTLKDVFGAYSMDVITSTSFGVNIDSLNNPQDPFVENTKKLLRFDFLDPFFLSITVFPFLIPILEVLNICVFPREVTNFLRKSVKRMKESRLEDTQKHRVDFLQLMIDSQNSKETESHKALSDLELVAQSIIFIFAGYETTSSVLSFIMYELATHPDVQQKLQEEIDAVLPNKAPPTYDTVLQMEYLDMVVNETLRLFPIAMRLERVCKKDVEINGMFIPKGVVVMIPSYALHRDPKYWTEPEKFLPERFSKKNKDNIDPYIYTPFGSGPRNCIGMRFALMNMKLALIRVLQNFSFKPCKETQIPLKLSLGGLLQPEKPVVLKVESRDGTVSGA

[13] = P. falciparum Dd2 growth inhibitors, dose response, SYBR Green, dry powder samples (AID 1159566); assay type: functional, cell-based;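 also: potency for growth inhibition with lower SYBR green DNA signal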
[14] = P. falciparum Dd2 growth inhibitors, dose response, SYBR Green, cherry-picked samples (AID 1159567); assay type: functional, cell-based
[15] = P. falciparum ATP4 D1247Y mutant growth inhibitors, dose response, NITD609-resistant line, SYBR Green, dry powder (AID 1159571); assay type: functional, cell-based;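 also: parasites synchronized at ring stage by sorbitol before testing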
[16] = P. falciparum 3D7-ScDHODH growth inhibitors, dose response, SYBR Green, dry powder samples (AID 1159570); assay type: functional, cell-based;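 also: parasite growth measured after 72 hours of compound exposure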
[17] = HepG2 cell cytotoxicity, dose response, cytotoxicity control, plate reader, dry powder samples (AID 1159569); assay type: functional, cell-based;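 also: inhibitor potency with signal falling toward the positive control level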
[18] = HepG2 cell cytotoxicity, dose response, cytotoxicity control, cherry-picked samples (AID 1159577); assay type: functional, cell-based

O=C(Nc1nnc(-c2ccc(Br)cc2)o1)C1=COCCO1
IC50 [1]: 5.97 µM (active)

NCc1csc(Nc2nncc3ccccc23)n1
AC50 [2]: 23.7 µM (active)

CSCCOC(=O)COc1ccc(/C=N/NC(=O)c2c(Cl)cnn2C)cc1
IC50 [1]: 4.7 µM (active)

COc1ccc(S(=O)(=O)Nc2ccc3c(c2)C(=O)N([C@H](C)CO)C[C@@H](C)[C@@H](CN(C)Cc2ccc(C(F)(F)F)cc2)OCCCC[C@H](C)O3)cc1
AC50 [3]: 5.6 µM (active) | AC50 [4]: 3.43 µM (active)

CC(=N)/C(C#N)=C(/O)CSc1ncnc2ccccc12
IC50 [5]: 17.9 µM (active) | EC50 [6]: 8.02 µM (active) | EC50 [7]: > 300 µM (not active)

CCOC(=O)N/N=C(/C)c1ccc([N+](=O)[O-])o1
EC50 [8]: 0.589 µM (active) | EC50 [9]: > 30 µM (not active) | AC50 [10]: 25.1 µM (inconclusive) | AC50 [11]: inconclusive

O=C(N/N=C/c1cccc(F)c1)c1csc2c1CCCC2
AC50 [11]: inconclusive | AC50 [12]: 15.8 µM (inconclusive)

COc1ccccc1S(=O)(=O)N(C)C[C@@H]1Oc2cc(C#CCC(C)C)ccc2S(=O)(=O)N([C@@H](C)CO)C[C@H]1C
AC50 [13]: 0.609 µM (active) | AC50 [14]: 0.652 µM (active) | AC50 [15]: 0.331 µM (active) | AC50 [16]: 0.521 µM (active) | AC50 [17]: > 100 µM (inactive)

COc1cccc(NC(=O)N2[C@H](CO)[C@H](c3ccccc3)[C@H]2CNCC(C)C)c1
AC50 [13]: 0.974 µM (active) | AC50 [14]: 1.78 µM (active) | AC50 [15]: 1.26 µM (active) | AC50 [16]: 1.35 µM (active) | AC50 [17]: 85.6 µM (active)

c1ccc(-c2ccc([C@@H]3[C@@H]4CN(Cc5cccnc5)C[C@H]3N4)cc2)cc1
AC50 [18]: 9.31 µM (active) | AC50 [14]: 0.472 µM (active)

Cc1ccc(-c2ccc([C@@H]3[C@@H]4CN(Cc5cccnc5)C[C@H]3N4)cc2)cc1
AC50 [18]: 9.99 µM (active) | AC50 [14]: 0.457 µM (active)

C/C=C/c1ccc([C@H]2[C@@H]3CN(C(=O)Nc4ccc(C(F)(F)F)cc4)C[C@H]2N3)cc1
AC50 [18]: 25.2 µM (active) | AC50 [13]: 5.42 µM (active) | AC50 [14]: 3.42 µM (active) | AC50 [15]: 4.31 µM (active) | AC50 [16]: 4.43 µM (active) | AC50 [17]: 25.8 µM (active)

COc1cccc(CN2CC3(C2)CN(C(=O)Nc2ccc(F)cc2)[C@@H](CO)c2c3c3ccc(OC)cc3n2C)c1
AC50 [18]: 11.8 µM (active) | AC50 [14]: 2.98 µM (active)

COc1ccc2c3c(n(C)c2c1)[C@@H](CO)N(Cc1ccccc1OC)CC31CCN(CC2CC2)CC1
AC50 [18]: > 39 µM (inactive) | AC50 [13]: 0.522 µM (active) | AC50 [14]: 1.29 µM (active) | AC50 [15]: 1.07 µM (active) | AC50 [16]: 2.52 µM (active) | AC50 [17]: 34.5 µM (active)
